{"source": "patent US20250041438A1", "about": "“ANTIBODY-DRUG CONJUGATE” (NOVELTY NOBILITY INC., priority 2022, published 2025)", "key": {"GIST-T1 cells": {"test_system": "GIST-T1 cells", "type": "in vivo", "details": "imatinib 100 mg/kg p.o. D0-D29"}, "GIST-430/654 cells": {"test_system": "GIST-430/654 cells", "assay": "In vivo efficacy against imatinib-resistant GIST, GIST-430/654 cell xenograft model", "design": "species or system mice", "details": "day 49; imatinib 100 mg/kg p.o."}, "SCLC-H526 cells": {"test_system": "SCLC-H526 cells", "assay": "In vivo efficacy against SCLC, SCLC-H526 xenograft model", "design": "species or system mice", "details": "day 21; imatinib 100 mg/kg p.o.", "procedure": "In order to evaluate the efficacy of ADC substances against SCLC, an experiment was performed. The SCLC-H526 (NCI-H526, stage E, carcinoma; variant small cell lung cancer, c-Kit overexpression) xenograft model was used."}, "HMC 1.2 cells": {"test_system": "HMC 1.2 cells", "assay": "In vivo efficacy against mast cell tumor, HMC 1.2 xenograft model", "design": "species or system mice", "details": "day 17; imatinib 100 mg/kg p.o."}, "Kasumi-1 cells": {"test_system": "Kasumi-1 cells", "assay": "In vivo efficacy against AML, Kasumi-1 xenograft model", "design": "species or system mice", "details": "day 17; imatinib 100 mg/kg p.o.", "procedure": "The experiment was performed in the same manner as in Example 5, except that Kasumi-1 cells (3×10^6/100 […]/head/serum free, RPMI1640 medium) in 50% Matrigel (Corning, 354248, NY, USA) were used. The mice were enrolled in this study on day 29 after transplantation, and the average tumor volume was about 170 mm^3 (day 0)."}}, "data": [{"smiles": "Cc1ccc(NC(=O)c2ccc(CN3CCN(C)CC3)cc2)cc1Nc1nccc(-c2cccnc2)n1", "note": "[imatinib, reference compound]", "values": [{"measurement": "tumor weight after sacrifice, decrease compared to the control (vehicle)", "setting": "GIST-T1 cells", "result": "about 59%"}, {"measurement": "tumor growth inhibition compared to the control (vehicle), in words", "setting": "GIST-430/654 cells", "result": "little inhibition of tumor growth"}, {"measurement": "tumor growth inhibition compared to the control (vehicle), in words", "setting": "SCLC-H526 cells", "result": "little inhibition of tumor growth"}, {"measurement": "tumor growth inhibition, in words", "setting": "HMC 1.2 cells", "result": "little inhibition of tumor growth"}, {"measurement": "tumor growth inhibition compared to the control (vehicle), in words", "setting": "Kasumi-1 cells", "result": "little inhibition of tumor growth"}]}]}
